IC50 and GI50 data for 48 molecules are collected here from patent EP1673349B1, “BENZIMIDAZOLE DERIVATIVES: PREPARATION AND PHARMACEUTICAL APPLICATIONS” (priority 2003, dated 2005).

Read-outs that look alike come from different tables or passages of the source.

In one experiment the target is HDAC1 enzyme (Homo sapiens, UniProt Q13547). Briefly: In vitro HDAC assay (BIOMOL fluorescent-based HDAC activity assay), HDAC1. Particulars: Table 3; read-out: HDAC1 Enzyme Activity IC50. In kind it is biochemical.
HDAC1 enzyme, sequence (Q13547 whole entry): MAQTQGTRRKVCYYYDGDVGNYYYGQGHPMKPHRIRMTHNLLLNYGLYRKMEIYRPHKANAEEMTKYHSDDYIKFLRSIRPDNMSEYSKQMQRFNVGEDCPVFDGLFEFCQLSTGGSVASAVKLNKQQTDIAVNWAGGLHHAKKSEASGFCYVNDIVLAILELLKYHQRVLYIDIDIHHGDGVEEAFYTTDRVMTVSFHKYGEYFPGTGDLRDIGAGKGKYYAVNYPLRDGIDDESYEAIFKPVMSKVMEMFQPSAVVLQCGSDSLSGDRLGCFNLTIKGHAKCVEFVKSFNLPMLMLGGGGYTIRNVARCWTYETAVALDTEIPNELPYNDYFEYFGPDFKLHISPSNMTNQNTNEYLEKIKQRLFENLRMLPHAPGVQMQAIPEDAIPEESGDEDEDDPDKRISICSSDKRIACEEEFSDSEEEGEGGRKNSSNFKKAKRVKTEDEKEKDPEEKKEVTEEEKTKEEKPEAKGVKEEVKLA
A further experiment relates to Colo205. The experiment in a line: Cell-based proliferation assay (cyquant), Colo205.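 Note: Colo205 cells exposed for 96 h to a range of compound concentrations, growth read by CyQUANT, GI50 taken from plotted dose-response curves.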 Also noted: species or system human. As to conditions: Table 4, 96 h treatment.
For another experiment, the system named is MDA-MB435. The experiment in a line: Cell-based proliferation assay (cyquant), MDA-MB435.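 Note: GI50 taken from dose–response curves over a range of compound concentrations, with cell growth quantified by the CyQUANT proliferation assay.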 Also noted: species or system human. As to conditions: Homo sapiens, MDA-MB-435; Table 4; 96 h treatment.
For the next experiment, the target named is HDAC8 enzyme. The experiment in a line: In vitro HDAC assay (BIOMOL fluorescent-based HDAC activity assay), HDAC8. The class given is biochemical, human. Particulars: Table 3; read-out: HDAC8 Enzyme Activity IC50.

Experimental for Colo205: (§1) Human colon cancer cell lines (Colo205 and HCT116), human breast cancer cell lines (MDA-MB435 and MDA-MB231), and human lung cancer cell line (A549) were obtained from ATCC. […] MDA-MB435 cells were cultivated in DMEM containing 2 mM L-Glutamine, 5% FBS. HCT116 cells were cultivated in IMEM containing 2 mM L-Glutamine, 5% FBS. A549 and Colo205 cells were seeded in 96-wells plate at 2000 and 5000 cells per well respectively. MDA-MB435, HCT116, MDA-MB231 cells were seeded in 96-wells plate at 6000 cells per well. The plates were incubated at 37°C, 5% CO2, for 24 h. Cells, were treated with compounds at various concentration for 96 h. Cell growth was then monitored using cyquant cell proliferation assay (Invitrogen Pte Ltd). Dose response curves were plotted to determine GI50 values for the compounds using XL-fist.
Experimental for HDAC1 enzyme: (§2) Expression of GST-HDAC1 or HTGST-HDAC8 was done by infecting SF9 cells (Invitrogen Pte Ltd) with pDEST20-HDAC1 or pFASTBAC-GST-HDAC8 baculovirus at MOI=1 for 48 h. Soluble cell lysate was incubated with pre-equilibrated Glutathione Sepharose 4B beads (Amersham) at 4°C for 2 h. The beads were washed with PBS buffer for 3 times. The GST-HDAC1 protein or GST-HDAC8 protein was eluted by elution buffer containing 50 mM Tris, pH8.0, 150mM NaCl, 1% Triton X-100 and 10mM or 20mM reduced Glutathione. The purified GST-HDAC1 protein or purified GST-HDAC8 protein was dialyzed with HDAC storage buffer containing 10mM Tris, pH7.5, 100mM NaCl and 3mM MgCl2. 20% Glycerol was added to purified GST-HDAC1 protein or purified GST-HDAC8 before storage at -80°C.
(§3) The assay has been carried, out in 96 well format and the BIOMOL fluorescent-based HDAC activity assay has been applied. […] Flur de lys Developer was added and the reaction was incubated for 10 min. Briefly, deacetylation of the substrate sensitizes it to the developer, which then generates a fluorophore (symbol). The fluorophore is excited with 360 nm light and the emitted light (460 nm) is detected on a fluorometric plate reader (Tecan Ultra Microplate detection system, Tecan Group Ltd.).
(§4) The analytical software, Prism 3.0 has been used to generate IC50 from a series of data.
Experimental for HDAC8 enzyme: as §2, §3, §4
Experimental for MDA-MB435: as §1

By IC50 is commonly meant the concentration at which inhibition is half-maximal. With `CN1CCN(CCCn2c(CCc3ccccc3)nc3cc(/C=C/C(=O)NO)ccc32)CC1` [Compound 81], the IC50 on HDAC1 enzyme came to 1600 nM.

Take `COc1ccc(CNCc2nc3cc(/C=C/C(=O)NO)ccc3n2C)cc1` [Compound 62]: at HDAC1 enzyme, the IC50 was determined as 234 nM. Consider `CC(C)OCCCn1c(CCc2ccccc2)nc2cc(/C=C/C(=O)NO)ccc21` [Compound 80], for which the concentration for half-maximal inhibition (IC50) on HDAC1 enzyme was found to be 1690 nM. Usually GI50 stands for the concentration that inhibits growth by half. As to `O=C(/C=C/c1ccc2c(c1)ncn2CCc1ccccn1)NO` [Compound 42, N-Hydroxy-3-[1-(2-pyridin-2-yl-ethyl)-1H-benzimidazol-5-yl]-acrylamide], the GI50 in the experiment on Colo205 (Homo sapiens, COLO 205) stood at 14400 nM; in the experiment with MDA-MB435, 15800 nM. As to `O=C(/C=C/c1ccc2c(c1)nc(-c1ccccn1)n2CCCO)NO` [Compound 13, N-Hydroxy-3-[1-(3-hydroxy-propyl)-2-(2-pyridyl)-1H-benzimidazol-5-yl]-acylamide], the IC50 on HDAC1 enzyme was 385 nM; at HDAC8 enzyme, 141 nM.

With `O=C(/C=C/c1ccc2c(c1)nc(CCc1ccccc1)n2CCc1ccccn1)NO` [Compound 18], the figures for the IC50 on HDAC1 enzyme and at HDAC8 enzyme were 438 nM and 290 nM, respectively. `CCn1c(CCNC(=O)COc2ccccc2)nc2cc(/C=C/C(=O)NO)ccc21` [Compound 73]: the IC50 on HDAC1 enzyme came out at 560 nM. As for `CCn1c(CCNC(=O)Cc2ccccc2)nc2cc(/C=C/C(=O)NO)ccc21` [Compound 70], the IC50 at HDAC1 enzyme is 923 nM. The 50% growth inhibitory concentration (GI50) with Colo205 (read-out: GI50 (Colo 205)) is 2900 nM. With `Cn1c(CCCc2ccccc2)nc2cc(/C=C/C(=O)NO)ccc21` [Compound 52, N-Hydroxy-3-[1-methyl-2-(3-phenyl-propyl)-1H-benzimidazol-5-yl]-acrylamide], the 50% growth inhibitory concentration (GI50) was determined as 2040 nM in the experiment on Colo205 (Homo sapiens, COLO 205) and 3580 nM with MDA-MB435.

For the molecule `O=C(/C=C/c1ccc2c(c1)nc(-c1ccncc1)n2CCO)NO` [Compound 10, N-Hydroxy-3-[1-(2-hydroxy-ethyl)-2-(4-pyridyl)-1H-benzimidazol-5-yl]-acrylamide], at HDAC8 enzyme, the IC50 worked out at 883 nM.

As for `CN(C)CC(C)(C)Cn1c(CCc2ccc(F)cc2)nc2cc(/C=C/C(=O)NO)ccc21` [Compound 84], the IC50 at HDAC1 enzyme is 54 nM. Turning to `CN(C)CC(C)(C)Cn1c(CCCc2ccccc2)nc2cc(/C=C/C(=O)NO)ccc21` [Compound 83], the 50% inhibitory concentration (IC50) on HDAC1 enzyme turned out to be 71 nM.

Take `CC(C)c1nc2cc(/C=C/C(=O)NO)ccc2n1CCCO` [Compound 46]: on HDAC1 enzyme, the IC50 was determined as 1670 nM. Consider `O=C(/C=C/c1ccc2c(c1)nc(CCc1ccccc1)n2CCCn1ccnc1)NO` [Compound 56, N-Hydroxy-3-[1-(-3-imidazol-1-yl-propyl)-2-phenethyl-1H-benzimidazol-5-yl]-acrvlamide], for which, on HDAC1 enzyme, the IC50 came out at 158 nM. For the molecule `COc1ccc(-c2nc3cc(/C=C/C(=O)NO)ccc3n2CCO)cc1` [Compound 5, N-Hydroxy-3-[1-(2-hydroxy-ethyl)-2-(4-methoxy-phenyl)-1H-benzimidazole-5-yl]-acrylamide], at HDAC8 enzyme, the IC50 was determined as 401 nM. The GI50 in the experiment on Colo205 (Homo sapiens, COLO 205) was more than 100000 nM. With `O=C(/C=C/c1ccc2c(c1)nc(CCc1ccccc1)n2CC(O)CO)NO` (stereo not drawn) [Compound 8], the half-maximal inhibitory concentration (IC50) worked out at 286 nM on HDAC1 enzyme and 454 nM on HDAC8 enzyme. The molecule `CN(C)CCCn1c(CCc2ccccc2)nc2cc(/C=C/C(=O)NO)ccc21` [Compound 63, N-Hydroxy-3-[1-(3-dimethylamino-propyl)-2-phenethyl-1H-benzimidazol-5-yl]-acrylamide] displayed a GI50 in the experiment with Colo205 (Homo sapiens, COLO 205, 96 h) of 2000 nM. Consider `CC(C)(C)Cn1c(CCc2ccccc2)nc2cc(/C=C/C(=O)NO)ccc21` [Compound 75], for which the GI50 in the experiment on Colo205 (read-out: GI50 (Colo 205)) is 2880 nM. For `COCCCn1c(CCc2ccccc2)nc2cc(/C=C/C(=O)NO)ccc21` [Compound 15], the half-maximal inhibitory concentration (IC50) at HDAC1 enzyme stood at 206 nM; on HDAC8 enzyme, 313 nM. Regarding `CC(C)Cc1nc2cc(CCC(=O)NO)ccc2n1CCCO` [Compound 29, N-Hydroxy-3-[1-(3-Hydroxy-propyl)-2-isobutyl-1H-benzimidazol-5-yl]-propionamide], the results for the IC50 at HDAC1 enzyme and on HDAC8 enzyme were 49100 nM and 34000 nM, respectively. `CCN(CC)CCn1c(CCc2ccccc2)nc2cc(/C=C/C(=O)NO)ccc21` [Compound 66, N-Hydroxy-3-[1-(2-diethylamino-ethyl)-2-phenethyl-1H-benzimidazol-5-yl]-acrylamide]: the IC50 at HDAC8 enzyme came to 255 nM. Moreover, the GI50 in the experiment with Colo205 (Homo sapiens, COLO 205, 96 h) was found to be 220 nM. In the case of `Cn1c(CNCc2ccccc2)nc2cc(/C=C/C(=O)NO)ccc21` [Compound 60, N-Hydroxy-3-[2-(benzylamino-methyl)-1-methyl-1H-benzimidazol-5-yl]-acrylamide], the GI50 is 2470 nM in the experiment with Colo205 (Homo sapiens, COLO 205) and 3600 nM in the experiment with MDA-MB435. As to `CCn1c(CCNCc2ccccc2)nc2cc(/C=C/C(=O)NO)ccc21` [Compound 74, N-Hydroxy-3-[2-(2-benzylamino-ethyl)-1-ethyl-1H-benzimidazol-5-yl]-acrylamide], in the experiment on Colo205 (Homo sapiens, COLO 205), halving of growth (GI50) required 2070 nM.

Regarding `CN(C)CC(C)(C)Cn1c(CCc2cccnc2)nc2cc(/C=C/C(=O)NO)ccc21` [Compound 86, N-Hydroxy-3-[1-(3-Dimethylamino-2,2-dimethyl-propyl)-2-(2-pyridin-3-yl-ethyl)-1H-benzimidazol-5-yl]acrylamide], the GI50 in the experiment with Colo205 (Homo sapiens, COLO 205) came to 13100 nM. With `COc1cc(Cn2c(CCc3ccccc3)nc3cc(C4CC4C(=O)NO)ccc32)cc(OC)c1OC` (stereo not drawn) [Compound 88, 2-[2-Phenethyl-1-(3,4,5-trimethoxy-benzyl)-1H-benzimidazol-5-yl]-cyclopropanecarboxylic acid hydroxyamide], the IC50 on HDAC1 enzyme stood at 297 nM. The GI50 in the experiment on Colo205 (Homo sapiens, COLO 205, 96 h) worked out at 1260 nM. On to `CCn1cnc2cc(/C=C/C(=O)NO)ccc21` [Compound 39, N-Hydroxy-3-(1-Ethyl-1H-benzimidazol-5-yl)-acrylamide], for which the GI50 in the experiment on Colo205 (Homo sapiens, COLO 205, 96 h) came to 11700 nM; with MDA-MB435 it was 12000 nM. On to `O=C(O)CCn1c(CCc2ccccc2)nc2cc(/C=C/C(=O)NO)ccc21` [Compound 32, 3-[5-(2-Hydrocarbamoyl-vinyl)-2-phenethyl-benzimidazol-1-yl]-propionic acid], for which the results for the IC50 at HDAC1 enzyme and at HDAC8 enzyme were 2210 nM and 1890 nM, respectively. In the case of `O=C(/C=C/c1ccc2c(c1)nc(CCc1ccccc1)n2CCO)NO` [Compound 77], at HDAC1 enzyme, the IC50 is 570 nM. Still for that read-out and setting: next, `O=C(/C=C/c1ccc2c(c1)nc(CCc1ccccc1)n2CCCCCO)NO` [Compound 78]: more than 100000 nM; `Cn1c(CN(Cc2ccccc2)Cc2ccccc2)nc2cc(/C=C/C(=O)NO)ccc21` [Compound 61]: 196 nM. Consider `C=CCn1c(CCc2ccccc2)nc2cc(/C=C/C(=O)NO)ccc21` [Compound 79], for which the IC50 at HDAC1 enzyme worked out at 1260 nM.

On to `Cn1c(CNC(=O)Cc2ccc(F)cc2)nc2cc(/C=C/C(=O)NO)ccc21` [Compound 69], for which the IC50 on HDAC1 enzyme came out at 146 nM. Regarding `O=C(/C=C/c1ccc2c(c1)ncn2CCN1CCCCC1)NO` [Compound 90], the IC50 on HDAC1 enzyme was 166 nM. On to `O=C(/C=C/c1ccc2[nH]c(CCc3ccccc3)nc2c1)NO` [Compound 50, N-Hydroxy-3-(2-phenethyl-1H-benzimidazol-5-yl)-acrylamide], for which the GI50 in the experiment on Colo205 (Homo sapiens, COLO 205, 96 h) was found to be 4290 nM; in the experiment with MDA-MB435, 5190 nM.

As to `CC(C)Cc1nc2cc(/C=C/C(=O)NO)ccc2n1Cc1ccccc1` [Compound 34, N-Hydroxy-3-(1-Benzyl-2-isobutyl-1H-benzimidazol-5-yl)-acrylamide], at HDAC8 enzyme, the half-maximal inhibitory concentration (IC50) came out at 846 nM. In the case of `CCn1c(CCc2ccccc2)nc2cc(/C=C/C(=O)NO)ccc21` [Compound 38, N-Hydroxy-3-(1-Ethyl-2-phenethyl-1H-benzimidazol-5-yl)-acrylamide], the GI50 in the experiment on Colo205 (Homo sapiens, COLO 205, 96 h) worked out at 1470 nM; in the experiment on MDA-MB435, 1530 nM. The matching figures for `CN(C)CCCCn1c(CCc2ccccc2)nc2cc(/C=C/C(=O)NO)ccc21` [Compound 57, N-Hydroxy-3-[1-(4-dimethylamino-butyl)-2-phenethyl-1H-benzimidazol-5-yl]-acrylamide]: 1110 nM and 1390 nM.

`CCn1c(CN(Cc2ccccc2)Cc2ccccc2)nc2cc(/C=C/C(=O)NO)ccc21` [Compound 68]: the IC50 on HDAC1 enzyme was 294 nM.

`CCCn1cnc2cc(/C=C/C(=O)NO)ccc21` [Compound 37, N-Hydroxy-3-(1-propyl-1H-benzimidazol-5-yl)-acrylamide]: the GI50 in the experiment on Colo205 (Homo sapiens, COLO 205) came out at 7820 nM; with MDA-MB435 it was 7900 nM. Take `O=C(/C=C/c1ccc2c(c1)nc(COCc1ccccc1)n2CCc1cccnc1)NO` [Compound 28]: the IC50 stood at 206 nM at HDAC1 enzyme and 300 nM at HDAC8 enzyme. Turning to `O=C(NO)c1ccc2c(c1)nc(CCc1ccccc1)n2CCCO` [Compound 40, 1-(3-Hydroxy-prorpyl)-2-phenethyl-1H-benzimidazol-5-carboxylic acid hydroxyamide], the values for the IC50 on HDAC1 enzyme and on HDAC8 enzyme were 3300 nM and 441 nM, respectively. As to `O=C(/C=C/c1ccc2c(c1)nc(CCc1ccccc1)n2CCCN1CCCC1)NO` [Compound 82, N-Hydroxy-3-[2-phenethyl-1-(3-pyrrolidin-1-yl-propyl)-1H-benzimidazol-5-yl]-acrylamide], the 50% growth inhibitory concentration (GI50) in the experiment with Colo205 (Homo sapiens, COLO 205, 96 h) is 720 nM.

On to `CC(Cc1nc2cc(/C=C/C(=O)NO)ccc2n1CCc1cccnc1)c1ccccc1` (stereo not drawn) [Compound 41], for which the IC50 came to 195 nM at HDAC1 enzyme and 159 nM at HDAC8 enzyme. As to `CC(C)Cc1nc2cc(/C=C/C(=O)NO)ccc2n1CCc1ccccn1` [Compound 22], the IC50 was 1330 nM on HDAC1 enzyme and 234 nM on HDAC8 enzyme. With `O=C(/C=C/c1ccc2c(c1)nc(CCc1ccccc1)n2C1CCN(Cc2ccccc2)CC1)NO` [Compound 76], the IC50 at HDAC1 enzyme is 1030 nM. With `CCn1c(CCNS(=O)(=O)c2ccccc2)nc2cc(/C=C/C(=O)NO)ccc21` [Compound 71], the IC50 on HDAC1 enzyme was 167 nM. With `O=C(/C=C/c1ccc2c(c1)nc(CCc1ccccc1)n2CCc1ccccc1)NO` [Compound 26, N-Hydroxy-3-(1,2-Diphenethyl-1H-benzimidazol-5-yl]-acylamide], the GI50 in the experiment on Colo205 (Homo sapiens, COLO 205, 96 h) is 8790 nM; with MDA-MB435 it was 6670 nM. On to `Cn1c(CCc2ccccc2)nc2cc(/C=C/C(=O)NO)ccc21` [Compound 48, N-Hydroxy-3-(1-methyl-2-phenethyl-1H-benzimidazol-5-yl)-acrylamide], for which the concentration for 50% growth inhibition (GI50) in the experiment on Colo205 (Homo sapiens, COLO 205, 96 h) was found to be 1450 nM; in the experiment with MDA-MB435, 1780 nM.
